Experimental data: PMC8748404 (Angewandte Chemie (International ed. in English), 2021)

Tests used:
eDHFR = eDHFR (Escherichia coli, UniProt P0ABQ4); test: FP assay, displacement of fluorescein-labeled methotrexate; format: binding, E. coli; conditions: displacement of fluorescein-labeled MTX from eDHFR
[1] = target: E. coli dihydrofolate reductase (eDHFR) (Escherichia coli, UniProt P0ABQ4); test: inhibition assays of eDHFR; format: biochemical; conditions: eDHFR inhibition assay
human DHFR = target: T1, human DHFR (Homo sapiens, UniProt P00374); test: inhibition of human DHFR; format: biochemical
T1 sequence (P00374 1-187): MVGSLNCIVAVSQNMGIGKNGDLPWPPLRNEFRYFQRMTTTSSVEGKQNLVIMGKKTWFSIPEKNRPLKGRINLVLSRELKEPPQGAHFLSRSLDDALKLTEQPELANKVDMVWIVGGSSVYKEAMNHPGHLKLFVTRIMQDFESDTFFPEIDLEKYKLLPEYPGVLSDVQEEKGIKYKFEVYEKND

HaloTag-eDHFR = HaloTag-eDHFR (Escherichia coli, UniProt P0ABQ4); test: DNA-based ligand displacement screen of LOPAC library with DNA-linked TMP probe; format: binding, E. coli; conditions: LOPAC1280 screen against HaloTag-eDHFR
Chain of HaloTag-eDHFR (P0ABQ4 whole entry): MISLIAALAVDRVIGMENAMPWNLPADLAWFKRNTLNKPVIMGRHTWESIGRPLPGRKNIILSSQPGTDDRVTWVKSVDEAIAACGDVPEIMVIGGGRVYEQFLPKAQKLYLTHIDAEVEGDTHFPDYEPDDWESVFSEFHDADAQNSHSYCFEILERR

BRD7/9 = test: concurrent DNA-based displacement screening, DNA-bromosporine probe; format: binding; conditions: screen of 1000 compounds, TargetMol Bioactive Compound Library
[2] = test system: PB1-BD2, PB1-BD4, PB1-BD5, BRD7 and BRD9; test: concurrent screening against five bromodomain proteins; format: binding; conditions: five bromodomain proteins screened concurrently
PB1-BD2/4/5 = test: DNA-based ligand displacement assay, IC50 determination of hit compounds; format: binding

Chain of E. coli dihydrofolate reductase (eDHFR) (P0ABQ4 whole entry): as above
Chain of eDHFR (P0ABQ4 whole entry): as above

| displacement of DNA-bromosporine probe (BRD7/9) | binding to respective bromodomains (IC50 determination) (PB1-BD2/4/5) | SMILES | IC50 (eDHFR) [µM] | Ki [1] [µM] | inhibition of human DHFR (human DHFR) | recovery of DNA-linked probe (HaloTag-eDHFR) | selectivity in concurrent screen [2] |
| --- | --- | --- | --- | --- | --- | --- | --- |
| – | – | CN(CCOc1ccc(C[C@H](Nc2ccccc2C(=O)c2ccccc2)C(=O)O)cc1)c1ccccn1 [GW1929] | 7.9 | 0.41 | modest inhibition | low recovery | – |
| significantly displaced | – | CN1C(=O)c2sccc2N(C)c2nc(Nc3ccc(S(N)(=O)=O)cc3)ncc21 [XMU-MP-1] | – | – | – | – | selectivity towards BRD7/9 over PB1-BD2/4/5 |
| – | potent binding | Cc1cc(C)c(Nc2ccnc(Nc3ccc(C#N)cc3)n2)c(C)c1 [dapivirine] | – | – | – | – | selectivity for PB1-BD4 |
